The source of these data is patent US10294234B2, “HIV inhibitor compounds” (priority 2017, dated 2019).

Read-outs that look alike come from different tables or passages of the source.

Data set [1] in a line: in vivo. The settings on record: rat, in vivo; for Vd / RAT PO F: male, SD; for Vd / RAT IV CL / RAT IV T1/2: iv; for RAT PO F: 2.5 mg/kg. How it is done: Each dosing group consisted of 3 male naïve SD Rats. At dosing, the animals weighed between 0.27 to 0.32 kg. The animals were fasted overnight prior to dose administration. The test article was administered by intravenous infusion over 30 min. The rate of infusion was adjusted according to the body weight of each animal to deliver a dose of 0.5 or 1.0 mg/kg. For the oral dosing group, the test article was administered to animals by oral gavage administration. Serial venous blood samples (approximately 0.30 mL each) were taken at predose and 0.25, 0.48, 0.58, 0.75, 1.5, 3, 6, 8, 12 and 24 hours post dose for the IV dosing group animals. Blood samples were taken at predose, 0.25, 0.50, 1, 2, 4, 6, 8, 12 and 24 hours post dose for the oral group animals. The blood samples were collected into Vacutainer™ tubes containing EDTA-K2 as the anti-coagulant and were immediately placed on wet ice pending centrifugation for plasma. An LC/MS/MS method was used to measure the concentration of test compound in plasma. Non-compartmental pharmacokinetic analysis was performed on the plasma concentration-time data.

A summary of the method of data set [2]:
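Each compound (1 uM) is incubated in duplicate with 0.5 mg/mL liver microsomal protein from dog, rat or human plus NADPH-regenerating system. Samples taken at 2, 12, 25, 45 and 65 minutes are deproteinised and quantified by LC/MS/MS. Half-life gives Clint.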

In data set [3] the test system is HIV-1 (IIIB) in MT-4 cells. The data set is described as follows: MT-4 HIV assay. It is filed as cell-based. The settings on record: HIV-1 (IIIB), MT-4 cells, 5 days, Cell Titer Glo, read-out: EC50. The method in brief:
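Antiviral activity was read by Cell Titer Glo after a 5-day, 37 °C culture of MT-4 cells pre-infected with a 1:250 dilution of HIV-1 (IIIB). Compounds were tested as threefold dilution series in complete RPMI. Controls were no drug, mock infection and 5 uM AZT.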
In general terms: Cellular ATP, detected with luciferase, serves as a proxy for viable cell number.

Where [4] appears, read: Human immunodeficiency virus 1, MT4, 120 h.
Setting [5] is: human liver microsomes 0.5 mg/mL, 1 uM compound, NADPH.

For orientation: Vd means a proportionality between amount in the body and measured concentration, not a real space. The low end stands for little distribution into tissue, the high end for wide distribution into tissue. For orientation: EC50 means the concentration that produces a half-maximal response. Regarding `COC(=O)N[C@H](C(=O)N[C@@H](Cc1ccc(C#Cc2ccc(N3CC4CCC(C3)N4C3COC3)nc2)cc1)[C@@H](O)CN(Cc1ccc(-c2ccccn2)cc1)NC(=O)[C@@H](NC(=O)OC)C(C)(C)C(F)(F)F)C(C)(C)C(F)(F)F` [Example 56, Methyl ((5S,8S,9S,14S)-16,16,16-trifluoro-9-hydroxy-15,15-dimethyl-8-(4-((6-(8-(oxetan-3-yl)-3,8-diazabicyclo[3.2.1]octan-3-yl)pyridin-3-yl)ethynyl)benzyl)-3,6,13-trioxo-11-(4-(pyridin-2-yl)benzyl)-5-(1,1,1-trifluoro-2-methylpropan-2-yl)-2-oxa-4,7,11,12-tetraazahexadecan-14-yl)carbamate], in data set [1], the volume of distribution (Vd) came to 7.44 L/kg, the “RAT PO F” value was determined as 34.1%, the “RAT IV CL” value was 14.2 mL/min/kg and the “RAT IV T1/2” value worked out at 8.77 h. Also, the “Dog. Pred. Cl.” value in data set [2] (microsomes) came to 1.47 L/H/kg. For the same compound, the “Human Pred Cl.” value in data set [2] (human, microsomes) is 0.17 L/H/kg. The “Rat. Pred. Cl.” value in data set [2] (rat, microsomes) worked out at 0.19 L/H/kg. In data set [3] (setting [4]), the EC50 was determined as 3.59 nM.
For the compound `COC(=O)N[C@H](C(=O)N[C@@H](Cc1ccc(C#Cc2ccc(N3CC4CCC(C3)N4C3COC3)nc2)cc1)[C@@H](O)CN(Cc1c(F)cc(-c2cc3n(n2)CCOC3)cc1F)NC(=O)[C@@H](NC(=O)OC)C(C)(C)C(F)(F)F)C(C)(C)C(F)(F)F` [Example 57, Methyl ((5S,8S,9S,14S)-11-(4-(6,7-dihydro-4H-pyrazolo[5,1-c][1,4]oxazin-2-yl)-2,6-difluorobenzyl)-16,16,16-trifluoro-9-hydroxy-15,15-dimethyl-8-(4-((6-(8-(oxetan-3-yl)-3,8-diazabicyclo[3.2.1]octan-3-yl)pyridin-3-yl)ethynyl)benzyl)-3,6,13-trioxo-5-(1,1,1-trifluoro-2-methylpropan-2-yl)-2-oxa-4,7,11,12-tetraazahexadecan-14-yl)carbamate], in data set [1], the Vd is 2.45 L/kg, the “RAT PO F” value amounted to 23.2%, the “RAT IV CL” value was 6 mL/min/kg and the “RAT IV T1/2” value came to 6.28 h. The “Human Pred Cl.” value in data set [2] (human, microsomes) is reported as <0.11 L/H/kg. Moreover, in data set [2] (rat, microsomes), the “Rat. Pred. Cl.” value was <0.18 L/H/kg. Besides, the EC50 in data set [3] (setting [4]) was determined as 2.91 nM.
Turning to `COC(=O)N[C@H](C(=O)N[C@@H](Cc1ccc(C#Cc2cnc(N3CC4CCC(C3)N4C3COC3)nc2)cc1)[C@@H](O)CN(Cc1c(F)cc(-c2cnn(C(F)F)c2)cc1F)NC(=O)[C@@H](NC(=O)OC)C(C)(C)C(F)(F)F)C(C)(C)C(F)(F)F` [Example 61, Methyl ((5S,8S,9S,14S)-11-(4-(1-(difluoromethyl)-1H-pyrazol-4-yl)-2,6-difluorobenzyl)-16,16,16-trifluoro-9-hydroxy-15,15-dimethyl-8-(4-((2-(8-(oxetan-3-yl)-3,8-diazabicyclo[3.2.1]octan-3-yl)pyrimidin-5-yl)ethynyl)benzyl)-3,6,13-trioxo-5-(1,1,1-trifluoro-2-methylpropan-2-yl)-2-oxa-4,7,11,12-tetraazahexadecan-14-yl)carbamate], in data set [1], the Vd amounted to 6.5 L/kg, the “RAT PO F” value is given as 18.5%, the “RAT IV CL” value amounted to 7.17 mL/min/kg and the “RAT IV T1/2” value was found to be 12.9 h. In addition, the “Human Pred Cl.” value in data set [2] (human, microsomes) is reported as <0.11 L/H/kg. Moreover, the “Rat. Pred. Cl.” value in data set [2] (rat, microsomes) is recorded as <0.18 L/H/kg. In addition, in data set [3] (setting [4]), the EC50 is 4.11 nM.
Take `COC(=O)N[C@H](C(=O)N[C@@H](Cc1ccc(C#Cc2ccc(N3CC4CCC(C3)N4C3COC3)nc2)cc1)[C@@H](O)CN(Cc1c(F)cc(-c2cnn(C(F)F)c2)cc1F)NC(=O)[C@@H](NC(=O)OC)C(C)(C)C(F)(F)F)C(C)(C)C(F)(F)F` [Example 71, Methyl ((5S,8S,9S,14S)-11-(4-(1-(difluoromethyl)-1H-pyrazol-4-yl)-2,6-difluorobenzyl)-16,16,16-trifluoro-9-hydroxy-15,15-dimethyl-8-(4-((6-(8-(oxetan-3-yl)-3,8-diazabicyclo[3.2.1]octan-3-yl)pyridin-3-yl)ethynyl)benzyl)-3,6,13-trioxo-5-(1,1,1-trifluoro-2-methylpropan-2-yl)-2-oxa-4,7,11,12-tetraazahexadecan-14-yl)carbamate]: in data set [1], the Vd was 7.26 L/kg, the “RAT PO F” value stood at 24.6%, the “RAT IV CL” value stood at 15 mL/min/kg and the “RAT IV T1/2” value was 9.27 h. The “Dog. Pred. Cl.” value in data set [2] (microsomes) worked out at 0.47 L/H/kg. The “Human Pred Cl.” value in data set [2] (human, microsomes) was <0.11 L/H/kg. Further, in data set [2] (rat, microsomes), the “Rat. Pred. Cl.” value is <0.18 L/H/kg. Further, the EC50 in data set [3] (setting [4]) worked out at 3.37 nM.
Turning to `COC(=O)N[C@H](C(=O)N[C@@H](Cc1ccc(C#Cc2ccc(N3CC4CCC(C3)N4C3COC3)nc2)cc1)[C@@H](O)CN(Cc1c(F)cc(-c2ccc(C)cn2)cc1F)NC(=O)[C@@H](NC(=O)OC)C(C)(C)C(F)(F)F)C(C)(C)C(F)(F)F` [Example 229, Methyl ((5S,8S,9S,14S)-11-(2,6-difluoro-4-(5-methylpyridin-2-yl)benzyl)-16,16,16-trifluoro-9-hydroxy-15,15-dimethyl-8-(4-((6-(8-(oxetan-3-yl)-3,8-diazabicyclo [3.2.1]octan-3-yl)pyridin-3-yl)ethynyl)benzyl)-3,6,13-trioxo-5-(1,1,1-trifluoro-2-methylpropan-2-yl)-2-oxa-4,7,11,12-tetraazahexadecan-14-yl)carbamate], the “Human Pred Cl.” value in data set [2] (human, microsomes) was <0.11 L/H/kg. Further, the “Rat. Pred. Cl.” value in data set [2] (rat, microsomes) is 0.26 L/H/kg. Also, the half-maximal effective concentration (EC50) in data set [3] (setting [4]) stood at 7.86 nM.
On the same counts, the results for `COC(=O)N[C@H](C(=O)N[C@@H](Cc1ccc(C#Cc2ccc(N3CC4CCC(C3)N4C3COC3)nc2)cc1)[C@@H](O)CN(Cc1c(F)cc(-c2cnn(C(F)F)c2)cc1F)NC(=O)[C@@H](NC(=O)OC)C(C)(C)CF)C(C)(C)CF` [Example 233, methyl ((5S,8S,9S,14S)-11-(4-(1-(difluoromethyl)-1H-pyrazol-4-yl)-2,6-difluorobenzyl)-16-fluoro-5-(1-fluoro-2-methylpropan-2-yl)-9-hydroxy-15,15-dimethyl-8-(4-((6-(8-(oxetan-3-yl)-3,8-diazabicyclo[3.2.1]octan-3-yl)pyridin-3-yl)ethynyl)benzyl)-3,6,13-trioxo-2-oxa-4,7,11,12-tetraazahexadecan-14-yl)carbamate] are <0.11 L/H/kg, <0.18 L/H/kg and 2.71 nM.
With “Methyl ((5S,8S,9S,14S)-8-(4-((6-(3,8-diaza bicyclo[3.2.1]octan-3-yl)pyridin-3-yl)ethynyl)benzyl)-1-(4-(1-(difluoromethyl)-1H-pyrazol-3-yl)-2,6-difluorobenzyl)-16,16,16-trifluoro-9-hydroxy-15,15-dimethyl-3,6,13-trioxo-5-(1,1,1-trifluoro-2-methylpropan-2-yl)-2-oxa-4,7,11,12-tetraazahexadecan-14-yl)carbamate 2,2,2-trifluoroacetate [Example 161]”, the “Human Pred Cl.” value in data set [2] (setting [5]) was <0.11 L/H/kg. For the same compound, the EC50 in data set [3] was 14 nM.
For “Methyl ((5S,8S,9S,14S)-11-(2,6-difluoro-4-(1-methyl-1H-pyrazol-3-yl)benzyl)-16,16,16-trifluoro-9-hydroxy-15,15-dimethyl-8-(4-((6-(8-(oxetan-3-yl)-3,8-diazabicyclo[3.2.1]octan-3-yl)pyridin-3-yl)ethynyl)benzyl-3,6,13-trioxo-5-(1,1,1-trifluoro-2-methylpropan-2-yl)-2-oxa-4,7,11,12-tetraazahexadecan-14-yl)carbamate [Example 128]”, the “Human Pred Cl.” value in data set [2] (setting [5]) came to 0.15 L/H/kg. The “Rat. Pred. Cl.” value in data set [2] (rat liver microsomes 0.5 mg/mL, 1 uM compound, NADPH) was determined as 0.37 L/H/kg. The EC50 in data set [3] is 3.16 nM.
As for “Methyl ((5S,8S,9S,14S)-11-(4-(1-(difluoromethyl)-1H-pyrazol-4-yl)-2,6-difluorobenzyl)-16,16,16-trifluoro-9-hydroxy-15,15-dimethyl-8-(4-((6-(4-(oxetan-3-yl)piperazin-1-yl)pyridin-3-yl)ethynyl)benzyl)-3,6,13-trioxo-5-(1,1-trifluoro-2-methylpropan-2-yl)-2-oxa-4,7,11,12-tetraazahexadecan-14-yl)carbamate [Example 116]”, the “Human Pred Cl.” value in data set [2] (human, microsomes) came to 0.19 L/H/kg. In data set [2] (rat, microsomes), the “Rat. Pred. Cl.” value came out at 0.39 L/H/kg. For the same compound, the EC50 in data set [3] amounted to 2.79 nM.
